# According to patent publication EP0643053A1, “Process for the manufacture of phenoxyphenoxyalkyl derivatives” (CIBA-GEIGY AG, priority 1993, dated 1995):
# Assays:
# Format in all cases: in vivo
# [1] = tested on: Aonidiella aurantii crawlers; assay: Activity against Aonidiella aurantii on potato tubers (immersion); conditions: 400 ppm of active ingredient; potato tubers immersed in aqueous emulsion or suspension spray mixture; after 10 to 12 weeks; isomer ratios A, B and C used
# Description: (§1) The active ingredient is used, in each case, in three different isomer ratios A, B and C: A = 37.8 % of 2R,4S-isomer IIIa, 37.8% of 2S,4R-isomer IIIb, 12.2% of 2R,4R-isomer IIIc and 12.2% of 2S,4S-isomer IIId; B = 40.2% of 2R,4S-isomer IIIa, 40.2% of 2S,4R-isomer IIIb, 9.8% of 2R,4R-isomer IIIc and 9.8% of 2S,4S-isomer IIId; and C = 36.7% of 2R,4S-isomer IIIa, 36.7% of 2S,4R-isomer IIIb, 13.3% of 2R,4R-isomer IIIc and 13.3% of 2S,4S-isomer IIId. Example B2: Activity against Aonidiella aurantii Potato tubers are populated with Aonidiella aurantii crawlers. After about 2 weeks, the potatoes are immersed into an aqueous emulsion spray mixture or suspension spray mixture which comprises 400 ppm of active ingredient. After the tubers have dried, they are incubated in a plastic container. To evaluate the experiment after 10 to 12 weeks, the survival rate of the crawlers of the first subsequent generation of the treated population is compared with that of untreated control batches. In this test, the compound of the formula III has an activity of over 80%.
# [2] = tested on: Cydia pomonella eggs; assay: Activity against Cydia pomonella (ovicidal), egg immersion test; conditions: 144 h, 400 ppm of active ingredient in acetone/water, eggs on filter paper immersed, after 6 days, vs untreated control, isomer ratios A, B and C used, read-out: activity (% reduction in hatching rate)
# Description: (§2) The active ingredient is used, in each case, in three different isomer ratios A, B and C: A = 37.8 % of 2R,4S-isomer IIIa, 37.8% of 2S,4R-isomer IIIb, 12.2% of 2R,4R-isomer IIIc and 12.2% of 2S,4S-isomer IIId; B = 40.2% of 2R,4S-isomer IIIa, 40.2% of 2S,4R-isomer IIIb, 9.8% of 2R,4R-isomer IIIc and 9.8% of 2S,4S-isomer IIId; and C = 36.7% of 2R,4S-isomer IIIa, 36.7% of 2S,4R-isomer IIIb, 13.3% of 2R,4R-isomer IIIc and 13.3% of 2S,4S-isomer IIId. Example B4: Activity against Cydia pomonella (ovicidal) Cydia pomonella eggs which have been deposited on filter paper are briefly immersed into a test solution of 400 ppm of active ingredient in acetone/water. After the test solution has dried on, the eggs are incubated in Petri dishes. After 6 days, the percentage hatching rate of the eggs is evaluated by comparison with untreated control batches (% reduction in hatching rate). In this test, the compound of the formula III has an activity of over 80%.
# [3] = tested on: Aonidiella aurantii crawlers; assay: Activity against Aonidiella aurantii on Citrus trifoliata cuttings (spray); conditions: 50 ppm of active ingredient; Citrus trifoliata cuttings sprayed to drip point; after 10 to 12 weeks; isomer ratios A, B and C used
# Description: as §1, with “B3:” for “B2:”, “Citrus trifoliata cuttings” for “Potato tubers”, “cuttings” for “potatoes”, “sprayed to drip point with” for “immersed into”, “comprising 50” for “or suspension spray mixture which comprises 400”, “ingredient.” for “ingredient. After the tubers have dried, they are incubated in a plastic container.”
# [4] = tested on: Nilaparvata lugens; assay: Activity against Nilaparvata lugens (systemic), rice plants in pots; conditions: 144 h, 10 ppm of active ingredient in aqueous emulsion solution, larvae in the 2nd and 3rd stages, after 6 days, isomer ratios A, B and C used, read-out: percentage reduction in population (% activity)
# Description: The active ingredient is used, in each case, in three different isomer ratios A, B and C: A = 37.8 % of 2R,4S-isomer IIIa, 37.8% of 2S,4R-isomer IIIb, 12.2% of 2R,4R-isomer IIIc and 12.2% of 2S,4S-isomer IIId; B = 40.2% of 2R,4S-isomer IIIa, 40.2% of 2S,4R-isomer IIIb, 9.8% of 2R,4R-isomer IIIc and 9.8% of 2S,4S-isomer IIId; and C = 36.7% of 2R,4S-isomer IIIa, 36.7% of 2S,4R-isomer IIIb, 13.3% of 2R,4R-isomer IIIc and 13.3% of 2S,4S-isomer IIId. Example B6: Activity against Nilaparvata lugens (systemic) Pots containing rice plants are placed into an aqueous emulsion solution comprising 10 ppm of active ingredient. The plants are subsequently populated with larvae in the 2nd and 3rd stages. The test is evaluated after 6 days. The percentage reduction in population (% activity) is determined by comparing the number of plant hoppers on the treated and untreated plants. In this test, the compound of the formula III has an activity of over 80%.
# [5] = tested on: Nilaparvata lugens; assay: Activity against Nilaparvata lugens on sprayed rice plants; conditions: 504 h, 400 ppm of active ingredient, larvae in the 2nd and 3rd stages, after 21 days, isomer ratios A, B and C used, read-out: percentage reduction in population (% activity)
# Description: The active ingredient is used, in each case, in three different isomer ratios A, B and C: A = 37.8 % of 2R,4S-isomer IIIa, 37.8% of 2S,4R-isomer IIIb, 12.2% of 2R,4R-isomer IIIc and 12.2% of 2S,4S-isomer IIId; B = 40.2% of 2R,4S-isomer IIIa, 40.2% of 2S,4R-isomer IIIb, 9.8% of 2R,4R-isomer IIIc and 9.8% of 2S,4S-isomer IIId; and C = 36.7% of 2R,4S-isomer IIIa, 36.7% of 2S,4R-isomer IIIb, 13.3% of 2R,4R-isomer IIIc and 13.3% of 2S,4S-isomer IIId. Example B5: Activity against Nilaparvata lugens Rice plants are sprayed with an aqueous emulsion spray mixture comprising 400 ppm of active ingredient. After the spray coating has dried on, the plants are populated with plant hopper larvae in the 2nd and 3rd stages. The test is evaluated after 21 days. The percentage reduction in population (% activity) is determined by comparing the number of surviving plant hoppers on the treated and untreated plants. In this test, the compound of the formula III has an activity of over 80%.
# [6] = tested on: Adoxophyes reticulana eggs; assay: Activity against Adoxophyes reticulana (ovicidal), egg immersion test; conditions: 144 h; 400 ppm of active ingredient in acetone/water; eggs on filter paper immersed; after 6 days; vs untreated control; isomer ratios A, B and C used; read-out: activity (% reduction in hatching rate)
# Description: as §2, with “B1:” for “B4:”, “Adoxophyes reticulana” for “Cydia pomonella”
structure (smiles),measurement,setting,value
"CCC1OCC(COc2ccc(Oc3ccccc3)cc2)O1 (racemic) [compound of the formula III, 2-ethyl-4-(4-phenoxyphenoxymethyl)-1,3-dioxolane]",activity (survival rate of the crawlers of the first subsequent generation compared with untreated control),[1],over 80%
same,activity at 400 ppm,[2],> 80%
same,activity (survival rate of the crawlers of the first subsequent generation compared with untreated control),[3],over 80%
same,activity at 10 ppm,[4],> 80%
same,activity at 400 ppm,[5],> 80%
same,activity at 400 ppm,[6],> 80%
